# Patent US11166924B2, “N-methyl-d-aspartate receptor allosteric modulators and methods for their use” (Qingdao Primedicine Pharmaceutical Company, Ltd., priority 2016, dated 2021)
# Assays:
# Type in all cases: cell-based
# [1] = target: NMDARs in cultured hippocampal neurons (Rattus norvegicus, UniProt P35439+Q00959); assay: Whole-cell voltage clamp recordings of NMDAR currents in cultured hippocampal/cortical neurons; details: for Potentiation or depression of NMDAR-currents: tested in a similar fashion as Npam02, FIG. 4c
# GluN1/GluN2A NMDARs = target: T1, GluN1/GluN2A NMDARs (Rattus norvegicus, UniProt P35439+Q00959); assay: Whole-cell patch clamp recordings in HEK293 cells transfected with GluN1/GluN2A; details: for activation at 100 µM / activation at 50 µM: HEK293, Table 2, read-out: Normalized Potentiation GluN1/GluN2A; for activation at 50 µM: 50 μM (footnote *)
# T1 construct: expressed in transfected cells; host or cells: HEK293
# Method: Cells were transfected with a combination of pcDNA3-CMV expression vectors, each of which expressed one of the rat recombinant (GluN2AWT, GluN1WT, GluN2BWT) subunits. The sequences of all plasmids were confirmed by automated DNA sequencing. Human Embryonic Kidney 293 (HEK293 cells) were cultured in Dulbecco's Modified Eagle's Medium (DMEM) (Invitrogen) supplemented with 10% fetal bovine serum (FBS). When HEK293 cells achieved 90% confluence, plasmids of either GluN1 & GluN2A or GluN1 & GluN2B were co-transfected into the cells using Lipofectamine 2000 (Invitrogen, 11668019) according to manufacturer's instructions. HEK293 cells were then maintained in the 37° C. incubator with […] and 5% CO2 for 48 hrs before being used in experiments. The transfection ratios for the NMDAR subunit combinations were all 1:1 (GluN1/GluN2A or GluN1/GluN2B).
# Whole cell patch-clamp recordings were performed under voltage-clamp mode using an Axopatch 200B or 1D patch-clamp amplifier (Molecular Devices). Whole-cell currents were recorded at a holding potential of −60 mV unless indicated elsewhere, and signals were filtered at 2 kHz, digitized at 10 kHz (Digidata 1322A). Recording pipettes (3-5 MΩ) were filled with intracellular solution containing (mM): CsCl 140, HEPES 10, Mg-ATP 4, QX-314 5, pH 7.20; osmolarity, 290-295 mOsm. BAPTA (10 mM) was added in the intracellular solution (unless otherwise specified). The coverslips were continuously superfused with extracellular solution containing (mM): NaCl 140, KCl 5.4, HEPES 10, CaCl2 1.3, glucose 20, pH 7.4; osmolarity, 305-315 mOsm. NMDA-induced currents were applied by NMDA through perfusion fast-step (Warner Instruments). With perfusion fast-step system, NMDA application was achieved by using a two-square barrel glass tubing and depending on the age of the cultured neurons, CNQX (10 μM), TTX (0.5 μM) or BIC (10 μM) were added in the extracellular solution to minimize the activation of ionotropic glutamate receptors and voltage-gated sodium channels, respectively. All experiments were performed at room temperature. Recordings from at least six HEK293 cells/neurons were performed for all active compounds. Data were pooled among HEK293 cells or primary neurons and composite dose-response data were fitted by the equation Percentage Response=100×Relative Efficacy/[1+(EC50/Concentration)nH], where EC50 is the concentration of agonist that produces a half-maximal response, relative efficacy is the response at maximally effective concentration relative to the maximal response of glutamate, and nH is the Hill slope.
# GluN1/GluN2A NMDAR subtypes are an attractive target for positive allosteric modulation. The present inventors employed in silico computational drug discovery methods to conduct a virtual screen of purchasable lead-like compounds from the ZINC database (Irwin, J., et al. Abstr Pap Am Chem Soc (2005) 230:U1009) and some synthetic compounds to identify potential GluN1/GluN2A-NMDAR modulators. The in silico methods included large-scale docking against the interstice interface of the GluN1/GluN2A heterodimer and consensus scoring to select compounds for empirical testing. Candidate compounds were further screened by using GluN1/GluN2A transiently transfected in human embryonic kidney (HEK293) cells and tested by whole-cell patch clamp recordings.
# The inventors used transiently transfected HEK293 cells expressing either GluN1/GluN2A or GluN1/GluN2B NMDARs and tested by whole-cell voltage patch clamp recordings to see whether selected compounds were controlling the subtype selectivity profile of the drugs.
# Whole-cell patch clamp recordings were performed to measure glutamate evoked currents with chloride-based pipette solutions at a holding potential of −60 mV.
# GluN1/GluN2B NMDARs = target: T2, GluN1/GluN2B NMDARs (Rattus norvegicus, UniProt P35439+Q00960); assay: Whole-cell patch clamp recordings in HEK293 cells transfected with GluN1/GluN2B; details: HEK293, Table 2, read-out: Normalized Potentiation GluN1/GluN2B; for activation at 50 µM: 50 μM (footnote *)
# T2 construct: expressed in transfected cells; host or cells: HEK293
# [2] = target: T3, GluN2A NMDARs in GluN2B-lacking neurons (Mus musculus, UniProt P35436+P35438); assay: Whole-cell recordings in GluN2B-knockout cortical neurons; details: 0.2 μM with NMDA 20 μM; conditional GluN2B-knockout neurons
# T3 construct: endogenous in cells; host or cells: primary cortical neurons from GluN2B-knockout mouse embryos
# T2 sequence (Q00960 27-1482, other chains not shown): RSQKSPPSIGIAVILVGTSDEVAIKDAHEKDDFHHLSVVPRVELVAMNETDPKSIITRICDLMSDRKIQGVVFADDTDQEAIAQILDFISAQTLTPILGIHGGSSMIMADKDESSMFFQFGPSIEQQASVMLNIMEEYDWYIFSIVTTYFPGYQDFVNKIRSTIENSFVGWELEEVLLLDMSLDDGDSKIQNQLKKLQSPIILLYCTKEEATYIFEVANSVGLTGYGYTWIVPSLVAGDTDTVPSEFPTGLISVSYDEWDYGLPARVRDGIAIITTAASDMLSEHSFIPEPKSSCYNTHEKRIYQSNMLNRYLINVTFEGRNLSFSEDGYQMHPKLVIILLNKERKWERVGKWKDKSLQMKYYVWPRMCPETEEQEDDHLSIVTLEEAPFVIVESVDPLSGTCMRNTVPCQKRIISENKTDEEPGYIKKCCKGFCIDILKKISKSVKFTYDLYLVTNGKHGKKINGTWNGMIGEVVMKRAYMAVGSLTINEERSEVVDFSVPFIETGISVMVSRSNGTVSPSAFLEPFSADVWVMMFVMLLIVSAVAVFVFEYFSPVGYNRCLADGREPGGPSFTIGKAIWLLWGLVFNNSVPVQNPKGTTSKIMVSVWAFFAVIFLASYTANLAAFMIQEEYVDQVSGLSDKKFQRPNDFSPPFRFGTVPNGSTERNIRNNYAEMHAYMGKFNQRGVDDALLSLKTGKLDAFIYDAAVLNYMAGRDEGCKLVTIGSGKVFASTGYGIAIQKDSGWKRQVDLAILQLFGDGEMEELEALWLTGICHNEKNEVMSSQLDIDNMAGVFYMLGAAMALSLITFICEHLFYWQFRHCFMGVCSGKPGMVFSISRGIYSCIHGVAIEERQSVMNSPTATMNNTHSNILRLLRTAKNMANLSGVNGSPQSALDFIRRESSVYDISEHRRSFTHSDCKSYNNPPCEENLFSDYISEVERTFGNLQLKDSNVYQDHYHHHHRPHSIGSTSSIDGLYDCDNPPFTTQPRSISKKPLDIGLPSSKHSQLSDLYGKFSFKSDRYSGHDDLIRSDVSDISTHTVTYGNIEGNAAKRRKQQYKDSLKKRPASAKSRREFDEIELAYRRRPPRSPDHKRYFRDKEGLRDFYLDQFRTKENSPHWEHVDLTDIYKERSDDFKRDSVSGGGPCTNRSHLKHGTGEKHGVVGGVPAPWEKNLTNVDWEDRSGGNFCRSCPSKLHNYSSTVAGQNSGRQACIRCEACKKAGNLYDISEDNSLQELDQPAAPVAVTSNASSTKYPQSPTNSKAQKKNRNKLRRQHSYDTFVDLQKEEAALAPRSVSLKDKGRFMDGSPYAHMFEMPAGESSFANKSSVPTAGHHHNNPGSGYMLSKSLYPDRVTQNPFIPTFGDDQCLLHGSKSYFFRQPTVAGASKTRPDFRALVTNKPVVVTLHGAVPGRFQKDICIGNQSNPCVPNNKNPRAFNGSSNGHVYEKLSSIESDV
# T1 sequence (Q00959 23-1464, other chains not shown): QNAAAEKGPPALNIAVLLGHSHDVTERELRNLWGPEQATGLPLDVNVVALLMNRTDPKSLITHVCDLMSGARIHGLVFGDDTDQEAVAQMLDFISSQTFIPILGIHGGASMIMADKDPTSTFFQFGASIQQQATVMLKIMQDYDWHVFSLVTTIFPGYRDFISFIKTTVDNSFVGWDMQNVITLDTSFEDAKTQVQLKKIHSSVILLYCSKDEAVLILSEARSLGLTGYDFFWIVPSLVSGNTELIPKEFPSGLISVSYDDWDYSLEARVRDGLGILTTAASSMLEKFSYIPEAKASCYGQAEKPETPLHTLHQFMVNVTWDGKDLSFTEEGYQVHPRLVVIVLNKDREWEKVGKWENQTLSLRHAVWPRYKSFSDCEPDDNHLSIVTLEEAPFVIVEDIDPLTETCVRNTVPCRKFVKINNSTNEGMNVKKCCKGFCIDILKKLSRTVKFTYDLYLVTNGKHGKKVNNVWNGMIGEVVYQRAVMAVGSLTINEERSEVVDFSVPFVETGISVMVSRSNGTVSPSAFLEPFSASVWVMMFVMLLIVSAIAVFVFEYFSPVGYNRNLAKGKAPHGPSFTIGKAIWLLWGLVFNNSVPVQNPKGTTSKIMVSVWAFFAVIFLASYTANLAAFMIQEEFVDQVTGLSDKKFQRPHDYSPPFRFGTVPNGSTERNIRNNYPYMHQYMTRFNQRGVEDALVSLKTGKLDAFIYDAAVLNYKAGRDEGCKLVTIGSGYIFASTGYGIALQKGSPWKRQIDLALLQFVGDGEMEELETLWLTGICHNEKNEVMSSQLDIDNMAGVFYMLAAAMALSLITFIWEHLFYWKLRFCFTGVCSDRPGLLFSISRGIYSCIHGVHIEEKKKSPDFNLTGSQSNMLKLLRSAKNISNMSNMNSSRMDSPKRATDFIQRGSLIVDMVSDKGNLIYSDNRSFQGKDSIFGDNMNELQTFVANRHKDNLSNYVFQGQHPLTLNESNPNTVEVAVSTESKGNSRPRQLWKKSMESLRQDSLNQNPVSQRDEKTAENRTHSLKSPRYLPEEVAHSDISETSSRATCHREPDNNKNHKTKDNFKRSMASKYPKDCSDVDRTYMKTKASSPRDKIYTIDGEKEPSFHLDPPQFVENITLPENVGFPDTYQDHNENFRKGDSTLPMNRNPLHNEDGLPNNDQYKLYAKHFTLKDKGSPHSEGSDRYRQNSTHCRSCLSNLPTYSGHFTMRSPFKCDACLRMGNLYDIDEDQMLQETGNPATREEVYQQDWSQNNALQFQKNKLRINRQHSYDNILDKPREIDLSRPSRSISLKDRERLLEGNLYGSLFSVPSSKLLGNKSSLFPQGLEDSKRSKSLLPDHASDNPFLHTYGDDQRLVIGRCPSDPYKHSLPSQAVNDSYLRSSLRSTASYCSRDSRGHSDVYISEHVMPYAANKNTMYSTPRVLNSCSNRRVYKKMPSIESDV
# NMDARs in cultured hippocampal neurons, sequence (Q00959 23-1464, other chains not shown): as above
compound,measurement,setting,value
"N[C@@H](CCCP(=O)(O)O)C(=O)O [APV, reference compound]",Block of currents,[1]; 50 μM,blocked all currents
"Cc1ccccc1C(=O)N/N=C/c1cccc(O)c1O [Npam04, (E)-N′-(2,3-dihydroxybenzylidene)-2-methylbenzohydrazide]",activation at 100 µM,GluN1/GluN2A NMDARs,33.7 ± 4.84%
same,Potentiation or depression of NMDAR-currents,[1],no observable potentiation or depression effect
same,activation at 100 µM,GluN1/GluN2B NMDARs,-54.6 ± 5.48%
"CN[C@H](CC(=O)O)C(=O)O [NMDA, reference compound]",pEC50 of NMDA dose-response curve,"[1]; cultured hippocampal neurons, FIG. 13",1.484±0.082 μM
same,EC50,"[1]; cultured hippocampal neurons, FIG. 13, read-out: EC50 of NMDA dose-response curve",30.5 ± 11.7 µM
"C[C@H](NC(c1cccc2[nH]c(=O)c(=O)[nH]c12)P(=O)(O)O)c1ccc(Br)cc1 (stereo partly shown) [NVP-AAM007, reference compound]",Block of the Npam02-increased NMDAR currents,GluN1/GluN2A NMDARs; 0.2 μM co-applied with both co-agonists,completely blocked
same,Block of NMDAR-currents,[2],90.73±1.11%
"O=C(N/N=C/c1cccc(O)c1O)c1ccc(Br)cc1 [Npam73, (E)-4-bromo-N′-(2,3-dihydroxybenzylidene)benzohydrazide]",activation at 50 µM,GluN1/GluN2A NMDARs,30.7 ± 4.76%
same,activation at 50 µM,GluN1/GluN2B NMDARs,-49.9 ± 6.87%
"O=C(N/N=C/c1cccc(O)c1O)c1ccccc1 [Npam01, (E)-N′-(2,3-dihydroxybenzylidene)benzohydrazide]",activation at 100 µM,GluN1/GluN2A NMDARs,26.2 ± 2.24%
same,Normalized Potentiation,"GluN1/GluN2A NMDARs; Table 1, positive modulation of GluN1/GluN2A NMDARs, concentration not given",2.61 ± 9.69%
same,Potentiation or depression of NMDAR-currents,[1],no observable potentiation or depression effect
same,activation at 100 µM,GluN1/GluN2B NMDARs,-28 ± 5.11%
"O=C(N/N=C/c1cccc(O)c1O)c1ccc(O)cc1 [Npam68, (E)-N′-(2,3-dihydroxybenzylidene)-4-hydroxybenzohydrazide]",activation at 50 µM,GluN1/GluN2A NMDARs,35.1 ± 4.85%
same,activation at 50 µM,GluN1/GluN2B NMDARs,-56.6 ± 7.45%
